Source: BindingDB's records for doi:10.3109/14756366.2012.757603 (Sakarya University, 2014)

How the values were obtained:
Carbonic anhydrase 1 = Carbonic anhydrase 1 (Homo sapiens, UniProt P00915); test: In Vitro Inhibition Assay
Procedure: (§1) For the inhibition studies of sulfonamide, different concentrations of these compounds were added to the enzyme. Activity percentage values of CA for different concentrations of each sulfonamide were determined by regression analysis usingMicrosoft Office 2000 Excel (New York, NY). CA enzyme activity without a sulfonamide solution was accepted to be 100%.

Carbonic anhydrase 2 = Carbonic anhydrase 2 (Homo sapiens, UniProt P00918); test: In Vitro Inhibition Assay
Procedure: as §1

Sequence of Carbonic anhydrase 1 (P00915 whole entry): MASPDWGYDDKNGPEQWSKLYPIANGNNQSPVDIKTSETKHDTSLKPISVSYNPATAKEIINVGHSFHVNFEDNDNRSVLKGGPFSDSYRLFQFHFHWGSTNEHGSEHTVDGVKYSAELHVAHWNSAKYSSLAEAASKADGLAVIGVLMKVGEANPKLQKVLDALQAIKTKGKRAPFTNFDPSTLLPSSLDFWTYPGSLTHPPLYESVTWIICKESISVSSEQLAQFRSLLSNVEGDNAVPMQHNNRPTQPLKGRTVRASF

Row | SMILES | IC50 (Carbonic anhydrase 1) [µM] | IC50 (Carbonic anhydrase 2) [µM]
1 | CN1C(=O)C(=CNc2ccc(S(N)(=O)=O)cc2)C(=O)N(C)C1=O [4-((1,3-Dimethyl-2,4,6-trioxo-tetrahydropyrimidin-5(6H)-ylidene)methylamino)benzene-sulfonamide (2e)] | 5.2 | 2.52
2 | NS(=O)(=O)c1ccc(NC=C2C(=O)c3ccccc3C2=O)cc1 [4-((1,3-Dioxo-1H-inden-2(3H)-ylidene)methylamino)benzene-sulfonamide (2g)] | 3.19 | 3.36
3 | CC1(C)OC(=O)C(=CNc2ccc(S(N)(=O)=O)cc2)C(=O)O1 [4-((2,2-Dimethyl-4,6-dioxo-1,3-dioxan-5-ylidene)methylamino)benzene-sulfonamide (2c)] | 6.56 | 18.6
4 | NS(=O)(=O)c1ccc(NC=C2C(=O)NC(=O)NC2=O)cc1 [4-((2,4,6-Trioxo-tetrahydropyrimidin-5(6H)-ylidene)methylamino)benzene-sulfonamide (2f)] | 10.9 | 9.92
5 | NS(=O)(=O)c1ccc(NC=C2C(=O)CCC2=O)cc1 [4-((2,5-Dioxocyclopentylidene)methylamino)benzenesulfonamide (2h)] | 4.8 | 3.36
6 | NS(=O)(=O)c1ccc(NC=C2C(=O)CCCC2=O)cc1 [4-((2,6-Dioxocyclohexylidene)methylamino)benzenesulfonamide (2a)] | 4.25 | 4.93
7 | CC1(C)CC(=O)C(=CNc2ccc(S(N)(=O)=O)cc2)C(=O)C1 [4-((4,4-Dimethyl-2,6-dioxocyclohexylidene)methylamino)benzene-sulfonamide (2b)] | 2.12 | 6.41
8 | NS(=O)(=O)c1ccc(NC=C2C(=O)CC(c3ccco3)CC2=O)cc1 (stereo unspecified) [4-((4-(Furan-2-yl)-2,6-dioxocyclohexylidene)methylamino)benzenesulfonamide (2d)] | 8.61 | 7.21
